One series concerns the target Chymotrypsinogen A (Bos taurus, UniProt P00766).
The target in another series is T1, Serine protease 1 (Bos taurus, UniProt P00760).
T1 sequence (P00760 whole entry): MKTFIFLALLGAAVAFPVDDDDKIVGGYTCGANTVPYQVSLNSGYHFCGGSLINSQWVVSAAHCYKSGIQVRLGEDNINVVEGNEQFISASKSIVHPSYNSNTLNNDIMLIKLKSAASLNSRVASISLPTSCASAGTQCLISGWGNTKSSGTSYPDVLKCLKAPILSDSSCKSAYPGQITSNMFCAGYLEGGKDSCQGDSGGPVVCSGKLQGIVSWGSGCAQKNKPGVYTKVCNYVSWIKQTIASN

Description for Chymotrypsinogen A: Compound was tested for the inhibition of chymotrypsin
Description for Serine protease 1: Compound was tested for the inhibition of trypsin
Description for physchem: Dissociation constant of compound was determined

For the compound `CB(O)c1ccccc1` [PHENYL METHYL BORINIC ACID], the Ki (commonly a measure of affinity in units of concentration, obtained from inhibition or displacement) on Chymotrypsinogen A was found to be 0.03 mM. In addition, the pKa (commonly the negative logarithm of the acid dissociation constant) in the series “physchem” was 8.1.
`OB(O)c1ccccc1` [PHENYLBORONIC ACID] gave a pKa of 8.85. At Serine protease 1, this compound came in with a Ki of 10.2 mM.

(Values after ChEMBL document CHEMBL1127999, “Diphenylborinic acid is a strong inhibitor of serine proteases” (Bioorg Med Chem Lett, 1994).)
